Patent US9474758B2, “Thienopyrimidinedione derivatives as TRPA1 modulators” (Glenmark Pharmaceuticals S.A., priority 2009, dated 2016)
Read-outs that look alike come from different tables or passages of the source.

Key:
[1] = molecular target: T1, Human TRPA1 expressing CHO cells (Homo sapiens, UniProt O75762); test: 45Calcium uptake assay, inhibition of AITC induced calcium uptake (human); assay type: cell-based; settings: for inhibition at 1 µM: read-out: Percentage inhibition at 1.0 μM; for inhibition at 10 µM: read-out: Percentage inhibition at 10.0 μM
T1 construct: expressed in transfected cells; host or cells: CHO cells (G-418 selection)
T1 sequence (O75762 whole entry): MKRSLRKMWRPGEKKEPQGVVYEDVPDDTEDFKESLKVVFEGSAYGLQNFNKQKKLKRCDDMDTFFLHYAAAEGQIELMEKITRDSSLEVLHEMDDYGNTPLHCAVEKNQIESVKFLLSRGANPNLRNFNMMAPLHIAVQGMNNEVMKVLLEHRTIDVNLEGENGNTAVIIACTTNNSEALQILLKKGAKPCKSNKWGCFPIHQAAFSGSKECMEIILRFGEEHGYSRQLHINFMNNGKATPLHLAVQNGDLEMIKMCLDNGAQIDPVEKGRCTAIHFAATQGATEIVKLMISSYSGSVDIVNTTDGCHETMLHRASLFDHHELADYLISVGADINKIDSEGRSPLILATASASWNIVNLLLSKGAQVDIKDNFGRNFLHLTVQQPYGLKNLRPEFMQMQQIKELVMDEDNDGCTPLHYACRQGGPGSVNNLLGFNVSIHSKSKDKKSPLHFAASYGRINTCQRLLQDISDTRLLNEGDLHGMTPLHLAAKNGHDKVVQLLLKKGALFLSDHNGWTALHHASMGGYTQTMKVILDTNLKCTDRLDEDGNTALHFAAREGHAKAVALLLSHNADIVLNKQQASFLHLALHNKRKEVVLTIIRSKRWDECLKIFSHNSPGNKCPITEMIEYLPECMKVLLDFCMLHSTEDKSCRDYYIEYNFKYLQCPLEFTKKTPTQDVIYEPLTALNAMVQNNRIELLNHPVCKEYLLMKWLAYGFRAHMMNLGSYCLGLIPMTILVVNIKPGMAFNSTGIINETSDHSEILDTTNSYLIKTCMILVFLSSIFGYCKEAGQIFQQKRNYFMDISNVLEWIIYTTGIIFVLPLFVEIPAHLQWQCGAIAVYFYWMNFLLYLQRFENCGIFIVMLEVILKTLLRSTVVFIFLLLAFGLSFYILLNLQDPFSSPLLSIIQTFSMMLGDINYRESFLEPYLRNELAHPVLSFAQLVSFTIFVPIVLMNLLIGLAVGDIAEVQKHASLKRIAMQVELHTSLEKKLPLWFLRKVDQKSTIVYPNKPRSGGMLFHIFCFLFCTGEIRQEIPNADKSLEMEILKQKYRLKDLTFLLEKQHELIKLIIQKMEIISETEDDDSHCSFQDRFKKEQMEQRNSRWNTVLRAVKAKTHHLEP
Summary of the method: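 CHO cells expressing rat or human TRPA1 were pre-treated with compound for 10 min, then given AITC (30 μM human, 10 μM rat) plus 5 μCi/ml 45Ca2+ for 3 min; final DMSO 0.5%. Lysate radioactivity was counted by scintillation. IC50 came from nonlinear regression of concentration-response curves as % of maximal response.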

[2] = molecular target: T2, Rat TRPA1 expressing CHO cells (Rattus norvegicus, UniProt Q6RI86); test: 45Calcium uptake assay, inhibition of AITC induced calcium uptake (rat); assay type: cell-based; settings: for inhibition at 1 µM: read-out: Percentage inhibition at 1.0 μM; for inhibition at 10 µM: read-out: Percentage inhibition at 10.0 μM; for IC50: read-out: Rat IC50 value (Range)
T2 construct: expressed in transfected cells; host or cells: CHO cells (Zeocin selection)
T2 sequence (Q6RI86 whole entry): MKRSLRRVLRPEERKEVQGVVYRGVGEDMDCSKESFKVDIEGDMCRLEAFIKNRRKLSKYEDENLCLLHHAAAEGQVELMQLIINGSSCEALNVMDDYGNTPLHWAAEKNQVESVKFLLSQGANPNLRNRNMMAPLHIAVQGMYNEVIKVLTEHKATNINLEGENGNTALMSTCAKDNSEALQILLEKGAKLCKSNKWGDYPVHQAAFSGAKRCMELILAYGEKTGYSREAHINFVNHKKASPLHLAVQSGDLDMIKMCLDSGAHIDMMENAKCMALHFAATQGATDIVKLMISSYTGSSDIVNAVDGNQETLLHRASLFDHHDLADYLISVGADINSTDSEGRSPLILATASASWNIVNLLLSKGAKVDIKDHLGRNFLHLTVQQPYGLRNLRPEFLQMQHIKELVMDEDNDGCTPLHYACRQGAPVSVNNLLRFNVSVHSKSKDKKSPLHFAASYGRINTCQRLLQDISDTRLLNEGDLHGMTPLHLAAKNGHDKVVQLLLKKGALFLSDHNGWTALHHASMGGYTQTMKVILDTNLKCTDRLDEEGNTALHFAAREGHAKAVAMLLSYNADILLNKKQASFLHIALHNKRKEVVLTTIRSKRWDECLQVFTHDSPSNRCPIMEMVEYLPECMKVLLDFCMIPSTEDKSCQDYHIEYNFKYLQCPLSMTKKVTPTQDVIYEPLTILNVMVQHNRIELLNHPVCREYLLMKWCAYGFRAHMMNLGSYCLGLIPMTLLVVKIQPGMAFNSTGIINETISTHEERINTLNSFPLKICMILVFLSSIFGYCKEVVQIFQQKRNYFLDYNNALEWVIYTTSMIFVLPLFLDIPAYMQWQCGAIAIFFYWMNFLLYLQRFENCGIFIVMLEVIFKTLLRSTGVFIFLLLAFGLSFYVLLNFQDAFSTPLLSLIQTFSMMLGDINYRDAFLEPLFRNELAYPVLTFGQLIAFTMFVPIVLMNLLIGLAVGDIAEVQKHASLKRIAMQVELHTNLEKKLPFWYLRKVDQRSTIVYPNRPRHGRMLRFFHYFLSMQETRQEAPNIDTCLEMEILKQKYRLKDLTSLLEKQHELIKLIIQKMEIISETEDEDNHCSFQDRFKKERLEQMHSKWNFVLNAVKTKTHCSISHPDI
Experimental: Screening for TRPA1 Antagonist Using the ^45Calcium Uptake Assay:
The inhibition of TRPA1 receptor activation was measured as inhibition of allyl isothiocyanate (AITC) induced cellular uptake of radioactive calcium.
Test compounds were dissolved in 100% DMSO to prepare 10 mM stock and then diluted using plain medium with 0.1% BSA and 1.8 mM CaCl2 to get the desired concentration. The final concentration of DMSO in the reaction was 0.5% (v/v). […] Rat TRPA1 expressing CHO cells were grown in F-12 DMEM medium with 10% FBS, 1% penicillin-streptomycin solution, and 400 μg/ml of Zeocin. […] Cells were treated with the test compounds for 10 minutes followed by the addition of AITC at a final concentration of 30 μM (for human TRPA1) and/or 10 μM (for rat TRPA1) and 5 μCi/ml ^45Ca^+2 for 3 minutes. Cells were washed and lysed using a buffer containing 1% Triton X-100, 0.1% deoxycholate and 0.1% SDS. Radioactivity in the lysate was measured in a Packard TopCount after addition of liquid scintillant.
Concentration response curves were plotted as a % of maximal response obtained in the absence of test antagonist. IC50 values can be calculated from concentration response curve by nonlinear regression analysis using GraphPad PRISM software.

[3] = human TRPA1 CHO cells, AITC 30 μM, compound 1.0 μM
[4] = human TRPA1 CHO cells, AITC 30 μM, compound 10.0 μM
[5] = human TRPA1 CHO cells, AITC 30 μM, read-out: Human IC50 value (Range)
[6] = rat TRPA1 CHO cells, AITC 10 μM, compound 1.0 μM
[7] = rat TRPA1 CHO cells, AITC 10 μM, compound 10.0 μM
[8] = rat TRPA1 CHO cells, AITC 10 μM

| SMILES | inhibition at 1 µM [1, 3] | inhibition at 10 µM [1, 4] | IC50 [1, 5] | inhibition at 1 µM [2, 6] | inhibition at 10 µM [2, 7] | IC50 [2, 8] | IC50 [1] | inhibition at 1 µM ([1]; CHO) | inhibition at 10 µM ([1]; CHO) | inhibition at 1 µM ([2]; CHO) | inhibition at 10 µM ([2]; CHO) |
| --- | --- | --- | --- | --- | --- | --- | --- | --- | --- | --- | --- |
| Cc1sc2c(c1CC(=O)Nc1nc(-c3ccc(F)cc3F)cs1)c(=O)n(C)c(=O)n2C [Example 22, N-[4-(2,4-Difluorophenyl)-1,3-thiazol-2-yl]-2-(1,3,6-trimethyl-2,4-dioxo-1,2,3,4-tetrahydrothieno[2,3-d]pyrimidin-5-yl)acetamide] | 89.8% | 100% | 50 to 500 nM | 89.8% | 99.8% | – | – | – | – | – | – |
| Cn1c(=O)c2c(CC(=O)Nc3nc(-c4ccc(C(F)(F)F)cc4F)cs3)scc2n(C)c1=O [Example 51, 2-(1,3-Dimethyl-2,4-dioxo-1,2,3,4-tetrahydrothieno[3,4-d]pyrimidin-5-yl)-N-{4-[2-fluoro-4-(trifluoromethyl)phenyl]-1,3-thiazol-2-yl}acetamide] | 96.9% | 99.7% | < 50 nM | 93% | 100% | 50 to 500 nM | – | – | – | – | – |
| Cn1c(=O)c2c(CC(=O)Nc3nc(-c4ccc(F)c(OC(F)(F)F)c4)cs3)csc2n(C)c1=O [Example 10, 2-(1,3-Dimethyl-2,4-dioxo-1,2,3,4-tetrahydrothieno[2,3-d]pyrimidin-5-yl)-N-{4-[4-fluoro-3-(trifluoromethoxy)phenyl]-1,3-thiazol-2-yl}acetamide] | 98.2% | 99.5% | < 50 nM | 96.1% | 100% | 50 to 500 nM | – | – | – | – | – |
| CCc1sc2c(c1CC(=O)Nc1nc(-c3ccc(C(F)(F)F)c(F)c3)cs1)c(=O)n(C)c(=O)n2C [Example 31, N-{4-[3-Fluoro-4-(trifluoromethyl)phenyl]-1,3-thiazol-2-yl}-2-(6-ethyl-1,3-dimethyl-2,4-dioxo-1,2,3,4-tetrahydrothieno[2,3-d]pyrimidin-5-yl)acetamide] | 98% | 98.5% | < 50 nM | 96.8% | 97.3% | 50 to 500 nM | – | – | – | – | – |
| Cn1c(=O)c2c(CC(=O)Nc3nc(-c4cc(F)cc(C(F)(F)F)c4)cs3)csc2n(C)c1=O [Example 8, 2-(1,3-Dimethyl-2,4-dioxo-1,2,3,4-tetrahydrothieno[2,3-d]pyrimidin-5-yl)-N-{4-[3-fluoro-5-(trifluoromethyl)phenyl]-1,3-thiazol-2-yl}acetamide] | 89.8% | 99.9% | < 50 nM | 95.5% | 100% | 50 to 500 nM | – | – | – | – | – |
| Cn1c(=O)c2c(CC(=O)Nc3nc(-c4cc(F)c(C(F)(F)F)c(F)c4)cs3)scc2n(C)c1=O [Example 58, N-{4-[3,5-difluoro-4-(trifluoromethyl)phenyl]-1,3-thiazol-2-yl}-2-(1,3-dimethyl-2,4-dioxo-1,2,3,4-tetrahydrothieno[3,4-d]pyrimidin-5-yl)acetamide] | 84.9% | 95.8% | < 50 nM | 71.1% | 71.7% | – | – | – | – | – | – |
| Cn1c(=O)c2c(CC(=O)Nc3nc(-c4ccc(C(F)(F)F)cc4F)cs3)csc2n(C)c1=O [Example 7, 2-(1,3-Dimethyl-2,4-dioxo-1,2,3,4-tetrahydrothieno[2,3-d]pyrimidin-5-yl)-N-{4-[2-fluoro-4-(trifluoromethyl)phenyl]-1,3-thiazol-2-yl}acetamide] | – | – | – | – | – | – | < 50 nM | 80.4% | 99.8% | 26.6% | 100% |
| CCc1sc2c(c1CC(=O)Nc1nc(-c3ccc(C#N)cc3)cs1)c(=O)n(C)c(=O)n2C [Example 30, N-[4-(4-Cyanophenyl)-1,3-thiazol-2-yl]-2-(6-ethyl-1,3-dimethyl-2,4-dioxo-1,2,3,4-tetrahydrothieno[2,3-d]pyrimidin-5-yl)acetamide] | 88.9% | 98.4% | 50 to 500 nM | 46.4% | 83.6% | – | – | – | – | – | – |
| Cn1c(=O)c2c(CC(=O)Nc3nc(-c4ccc(C(F)(F)F)c(F)c4F)cs3)scc2n(C)c1=O [Example 56, N-{4-[2,3-Difluoro-4-(trifluoromethyl)phenyl]-1,3-thiazol-2-yl}-2-(1,3-dimethyl-2,4-dioxo-1,2,3,4-tetrahydrothieno[3,4-d]pyrimidin-5-yl)acetamide] | 94.4% | 99.5% | < 50 nM | 96.9% | 100% | 50 to 500 nM | – | – | – | – | – |
| CCc1sc2c(c1CC(=O)Nc1nc(-c3cc(F)c(OCC(F)(F)F)c(F)c3)cs1)c(=O)n(C)c(=O)n2C [Example 34, N-{4-[3,5-Difluoro-4-(2,2,2-trifluoroethoxy)phenyl]-1,3-thiazol-2-yl}-2-(6-ethyl-1,3-dimethyl-2,4-dioxo-1,2,3,4-tetrahydrothieno[2,3-d]pyrimidin-5-yl)acetamide] | 97.4% | 98.4% | < 50 nM | 88.7% | 93.3% | 50 to 500 nM | – | – | – | – | – |
| Cc1sc2c(c1CC(=O)Nc1nc(-c3ccc(C(F)(F)F)c(F)c3)cs1)c(=O)n(C)c(=O)n2C [Example 24, N-{4-[3-Fluoro-4-(trifluoromethyl)phenyl]-1,3-thiazol-2-yl}-2-(1,3,6-trimethyl-2,4-dioxo-1,2,3,4-tetrahydrothieno[2,3-d]pyrimidin-5-yl)acetamide] | 98.5% | 99.9% | < 50 nM | 99.8% | 100% | 50 to 500 nM | – | – | – | – | – |
| Cn1c(=O)c2c(CC(=O)Nc3nc(-c4ccc(OC(F)(F)F)c(F)c4)cs3)csc2n(C)c1=O [Example 11, 2-(1,3-Dimethyl-2,4-dioxo-1,2,3,4-tetrahydrothieno[2,3-d]pyrimidin-5-yl)-N-{4-[3-fluoro-4-(trifluoromethoxy)phenyl]-1,3-thiazol-2-yl}acetamide] | 98.6% | 97.1% | < 50 nM | 98.8% | 99.8% | < 50 nM | – | – | – | – | – |
